Source: patent US5607969A, “L-DOPA ethyl ester to treat Parkinson's disease” (priority 1995, dated 1997)
“Also recorded” adds a separate entry of the source. Structures can show the parent of a compound that is named as a salt. Where two headings read alike, the source gives them in different places.

What was measured:
[1] = Stability of L-DOPA ethyl ester prepared according to Examples 1 and 2 (Table 2); format: physicochemical; set-up: key to COLOR: A: White with gray particles; B: Cream; C: WhiteYellow; D: Yellow; E: Dark Yellow; F: Gray; IMPURITIES: unit not given beside the values
Excerpt: | STABILITY OF L-DOPA ESTER PREPARED

[2] = Hygroscopicity, stability and crystallization of L-DOPA ethyl ester hydrochloride / free base made by conventional methods; format: physicochemical
Excerpt: GB Patent No. 1,364,505 and corresponding U.S. Pat. No. 3,803,120, assigned to Hoffman-La Roche, describe the synthesis of L-DOPA ethyl ester hydrochloride salt and free base. This compound synthesized is used as an intermediate in the synthesis of other compounds and is not characterized in the patent specification. […] This material cannot be used for pharmaceutical compositions.

[3] = literature, hydrochloride, cited from earlier work
[4] = Bio-availability of L-DOPA ethyl ester in rats (subcutaneous), plasma L-DOPA profile; format: in vivo; settings: s.c.
Method: Three subgroups of rats, each comprising four males and four females, were injected subcutaneously with 100 mg./kg. L-DOPA equivalents as L-DOPA ethyl ester. The L-DOPA ethyl ester was prepared as described in Example 1 and formulated as described in Example 4. After injection, blood samples were taken from the tail at the times shown below and analyzed for L-DOPA as described in T. Wikberg, J. of Pharmaceutical & Biomedical Analysis 9: 167-176 (1991). […] The L-DOPA plasma profile following injection is shown below: […]

[5] = Oral administration of L-DOPA ethyl ester to volunteers, plasma L-DOPA levels; format: in vivo, human; settings: humans
Method: Human volunteers orally received 100 mg equivalents of L-DOPA as L-DOPA ethyl ester prepared according to Example 1 and formulated as described in Example 5. Plasma levels of L-DOPA following administration of representative patients are listed below in Table 5.

[6] = tested on: fluctuating Parkinsonian patients; experiment: First oral clinical trial in fluctuating Parkinsonian patients; format: in vivo, human; settings: four occasions over two days, five patients
Method: This was the second in a series of oral clinical trials carried out with L-DOPA ethyl ester. The first clinical trial was carried out in five fluctuating Parkinsonian patients in the hospital setting where L-DOPA ethyl ester was administered on four occasions over a two day period.

[7] = tested on: fluctuating Parkinsonian patients; experiment: Second oral clinical trial: safety, tolerability and preliminary efficacy of L-DOPA ethyl ester, sub-chronic; format: in vivo, human
Method: A clinical trial was carried out to determine the safety, tolerability, and preliminary efficacy of L-DOPA ethyl ester administered sub-chronically via the oral route in eight fluctuating Parkinsonian patients.
In the second clinical trial, all patients filled out daily diary cards for at least 10 days prior to study entry to ensure their reliability. Upon study entry they were instructed to continue filling out daily diary cards for the 10-day period during which they were taking L-DOPA ethyl ester.
Three out of the patients' normal daily doses with levodopa/carbidopa or levodopa/benserazide were switched to L-DOPA ethyl ester, each day for ten days. At the beginning and end of this ten-day period, a physical exam was performed and blood chemistry analyzed.

[8] = tested on: Parkinson's Disease patients having response fluctuations; experiment: Clinical trial: administration of L-DOPA ethyl ester by injection (UPDRS on/off phases); format: in vivo, human
Method: A clinical trial was undertaken to assess the clinical efficacy of L-DOPA ethyl ester administered by sub-cutaneous injection.
The solution for injection L-DOPA ethyl ester 100mg, HCl to pH 4.0 and purified water as the vehicle.
Ten Parkinson's Disease patients having response fluctuations were hospitalized. These patients are typified in have "on" phases fluctuating with incapacitating "off" phases. Patients were administered s.c. or i.m. L-DOPA ethyl ester at escalating doses of 150-300mg in 2ml vehicle, twice daily, one hour after an oral capsule containing 25mg of carbidopa. "Off" and "on" UPDRS (Unified Parkinson's Disease Rating Scale) profiles, time to "on" phase and duration of "on" phase were measured. Blood samples were taken every 10 minutes post-L-DOPA ethyl ester administration for measurement of levodopa levels.

[9] = cited from earlier work
Parkinsonian patients = settings: cited from earlier work
[10] = synthesized by the methods of GB 1,364,505 / U.S. 3,803,120
[11] = 25° C. -N2, 1 m, listed as Example 1
[12] = 25° C. -N2, 2 m, listed as Example 1
[13] = 25° C. -N2, 4 m, listed as Example 1
[14] = 40° C., 1 m, listed as Example 1
[15] = 40° C., 2 m, listed as Example 1
[16] = 40° C., 4 m, listed as Example 1
[17] = s.c./i.m. injection, dose dependence

## CCOC(=O)[C@@H](N)Cc1ccc(O)c(O)c1 [Example 2a, L-DOPA ethyl ester]
[1]; 25° C. -N2, 1 m
  COLOR: D
  IMPURITIES: 16.9
[1]; 25° C. -N2, 1 m, 43200 min
  ASSAY: 83.1%
[1]; 25° C. -N2, 2 m
  COLOR: E
  IMPURITIES: 17.2
[1]; 25° C. -N2, 2 m, 86400 min
  ASSAY: 84.4%
[1]; 40° C., 1 m
  COLOR: E
  IMPURITIES: 20.9
[1]; 40° C., 1 m, 43200 min
  ASSAY: 82.6%
[1]; 40° C., 2 m
  COLOR: E
  IMPURITIES: 19.3
[1]; 40° C., 2 m, 86400 min
  ASSAY: 80.0%
[1]; t = 0
  ASSAY: 87%

## CCOC(=O)[C@@H](N)Cc1ccc(O)c(O)c1 [Example 2b, L-DOPA ethyl ester]
[1]; 25° C. -N2, 1 m
  COLOR: D/E
  IMPURITIES: 13.0
[1]; 25° C. -N2, 1 m, 43200 min
  ASSAY: 88.0%
[1]; 25° C. -N2, 2 m
  COLOR: D/E
  IMPURITIES: 13.9
[1]; 25° C. -N2, 2 m, 86400 min
  ASSAY: 86.8%
[1]; 25° C. -N2, 4 m
  COLOR: D/E
  IMPURITIES: 9.7
[1]; 25° C. -N2, 4 m, 172800 min
  ASSAY: 88.1%
[1]; 40° C., 1 m
  COLOR: D/E
  IMPURITIES: 14.0
[1]; 40° C., 1 m, 43200 min
  ASSAY: 85.1%
[1]; 40° C., 2 m
  COLOR: D/E
  IMPURITIES: 18.2
[1]; 40° C., 2 m, 86400 min
  ASSAY: 83.3%
[1]; 40° C., 4 m
  COLOR: F
[1]; 40° C., 4 m, 172800 min
  ASSAY: 79.2%
[1]; t = 0
  ASSAY: 87.9%

## CCOC(=O)[C@@H](N)Cc1ccc(O)c(O)c1 [Example 2c, L-DOPA ethyl ester]
[1]; 25° C. -N2, 1 m
  COLOR: D
  IMPURITIES: 5.6
[1]; 25° C. -N2, 1 m, 43200 min
  ASSAY: 94.0%
[1]; 25° C. -N2, 2 m
  COLOR: D/E
  IMPURITIES: 5.1
[1]; 25° C. -N2, 2 m, 86400 min
  ASSAY: 93.6%
[1]; 25° C. -N2, 4 m
  COLOR: F
  IMPURITIES: 5.6
[1]; 25° C. -N2, 4 m, 172800 min
  ASSAY: 94.1%
[1]; 40° C., 1 m
  COLOR: D
  IMPURITIES: 5.7
[1]; 40° C., 1 m, 43200 min
  ASSAY: 91.7%
[1]; 40° C., 2 m
  COLOR: D/E
  IMPURITIES: 4.8
[1]; 40° C., 2 m, 86400 min
  ASSAY: 93%
[1]; 40° C., 4 m
  COLOR: F
  IMPURITIES: 6.4
[1]; 40° C., 4 m, 172800 min
  ASSAY: 93%
[1]; t = 0
  ASSAY: 95.8%

## CCOC(=O)[C@@H](N)Cc1ccc(O)c(O)c1 [L-DOPA ethyl ester hydrochloride salt, L-DOPA ethyl ester hydrochloride]
[2]; applicant's own finding, hydrochloride
  hygroscopicity: hygroscopic nature
[2]; [10]
  crystallization: difficult to crystallize
  stability: not stable
[3]
  crystallization: difficult to crystallize
  hygroscopicity: hygroscopic
[3]; listed as ethyl ester
  crystallization: could not be crystallized as its hydrochloride salt
  hygroscopicity: hygroscopic potential

## CCOC(=O)[C@@H](N)Cc1ccc(O)c(O)c1 [L-DOPA ethyl ester]
[1]; [11]
  COLOR: A
  IMPURITIES: 1.2
[1]; [12]
  COLOR: B
  IMPURITIES: 0.7
[1]; [13]
  COLOR: C
  IMPURITIES: 0.6
[1]; [14]
  COLOR: A
  IMPURITIES: 2.4
[1]; [15]
  COLOR: B
  IMPURITIES: 0.7
[1]; 40° C., 4 m, 172800 min, listed as Example 1, 172800 min
  ASSAY: 99.7%
[1]; [16]
  COLOR: C
  IMPURITIES: 0.5
[1]; storage, 25° C. -N2, 1 m
  remaining at 720 h: 98%
[1]; storage, 25° C. -N2, 2 m
  remaining at 1440 h: 99.4%
[1]; storage, 25° C. -N2, 4 m
  remaining at 2880 h: 99.5%
[1]; storage, 40° C., 1 m
  remaining at 720 h: 98.9%
[1]; storage, 40° C., 2 m
  remaining at 1440 h: 99.6%
[4]
  conversion to L-DOPA: fully converted to L-DOPA
[4]; 100 mg./kg. L-DOPA equivalents
  L-DOPA ethyl ester detected in plasma samples: No L-DOPA ethyl ester was detected in any of the plasma samples
[4]; compared with L-DOPA
  kinetic profile: kinetic profile similar to L-DOPA
[5]
  conversion of L-DOPA ethyl ester to L-DOPA: rapid conversion of L-DOPA ethyl ester to L-DOPA in humans
[6]
  adverse reactions: No adverse reactions were recorded in any of the patients
[7]; following ten-day treatment
  serum chemistry: no abnormalities or changes for any patient
[7]; ten days
  duration of the anti-Parkinsonian effect: marked beneficial effect
  latency to initiation of drug action: marked beneficial effect
  variability of the response of the patient to the drug's effect: significant decrease
[7]; ten days, three times per day
  safety and tolerability: well tolerated by all individuals in the trial; also recorded: safe, well tolerated
[7]; ten days, three times per day, potential advantage
  unpredictability of drug response: reducing the unpredictability of drug response
[7]; ten-day treatment, eight patients
  patient complaints / adverse reaction: no patient complaints nor any reported adverse reaction
[8]; 150 mg i.m., 2 injections, range (30-45)
  MEAN TIME TO "ON" (RANGE): 37.5 min
[8]; 150 mg i.m., 2 injections, range (60-70)
  MEAN DURATION OF "ON" (RANGE): 65 min
[8]; 150 mg s.c., 6 injections, range (10-55)
  MEAN DURATION OF "ON" (RANGE): 31.4 min
[8]; 150 mg s.c., 6 injections, range (25-90)
  MEAN TIME TO "ON" (RANGE): 54 min
[8]; 200 mg i.m., 5 injections, range (20-40)
  MEAN TIME TO "ON" (RANGE): 29.2 min
[8]; 200 mg i.m., 5 injections, range (28-175)
  MEAN DURATION OF "ON" (RANGE): 104.5 min
[8]; 200 mg s.c., 19 injections, range (10-120)
  MEAN TIME TO "ON" (RANGE): 38.6 min
[8]; 200 mg s.c., 19 injections, range (10-235)
  MEAN DURATION OF "ON" (RANGE): 126.9 min
[8]; 250 mg i.m., 5 injections, range (10-35)
  MEAN TIME TO "ON" (RANGE): 27.5 min
[8]; 250 mg i.m., 5 injections, range (75-170)
  MEAN DURATION OF "ON" (RANGE): 133.3 min
[8]; 250 mg s.c., 8 injections, range (20-40)
  MEAN TIME TO "ON" (RANGE): 27.1 min
[8]; 250 mg s.c., 8 injections, range (60-210)
  MEAN DURATION OF "ON" (RANGE): 155 min
[8]; 300 mg i.m., 7 injections, range (5-35)
  MEAN TIME TO "ON" (RANGE): 18.3 min
[8]; 300 mg i.m., 7 injections, range (135-265)
  MEAN DURATION OF "ON" (RANGE): 196.7 min
[8]; 300 mg s.c., 6 injections, range (5-37)
  MEAN TIME TO "ON" (RANGE): 22.8 min
[8]; 300 mg s.c., 6 injections, range (80-315)
  MEAN DURATION OF "ON" (RANGE): 193 min
[8]; s.c. LDEE injection
  patients turned to an "on" phase: All patients were turned to an "on" phase
[8]; s.c./i.m. injection
  local or general side effects: No local or general side effects were observed
  plasma levodopa elevations: rapid and sustained plasma levodopa elevations
[8]; [17]
  duration of "on" phases: increased in a dose-dependant manner
  latency of onset of "on" phases: decreased

## N[C@@H](Cc1ccc(O)c(O)c1)C(=O)O [L-DOPA]
[8]; levodopa, prior to administration of LDEE
  mean duration of "on" phase: approximately 90 minutes
[8]; post-administration of levodopa, prior to administration of LDEE
  mean latency to an "on" phase: 45 to 75 min
[9]
  solubility: very poor solubility
Parkinsonian patients; L-DOPA therapy, on the average
  initial period of satisfactory, smooth and stable clinical benefit: 2-5 years
Parkinsonian patients; in vivo
  bioavailability: poor bioavailability
  half-life in vivo: short half-life in vivo
